Results reported in the supplement of paper PMC10702517.
± gives the standard deviation.

Experiment: chemical recovery from spiked human plasma; higher = better extraction
Conditions: pooled human plasma
[1] = extraction method: PES+SPE (3 d PDMS equilibration then HLB SPE)
[2] = extraction method: SPE only (HLB 96-well)
[3] = extraction method: solvent precipitation (ACN + hexane)
[4] = extraction method: SPE only (HLB 96-well), PES comparison experiment

SMILES | chemical recovery [1] | chemical recovery [2] | chemical recovery [3] | chemical recovery [4]
OC(Cn1cncn1)(c1ccc(F)cc1)c1ccccc1F (stereo unspecified) [Flutriafol] | 43.2 ± 5.4% | 41.9 ± 3.3% | 78.9 ± 4% | –
CCCCCCCCCCC[C@@H](C[C@@H]1OC(=O)[C@H]1CCCCCC)OC(=O)[C@H](CC(C)C)NC=O [Orlistat] | – | 3.21 ± 3.3% | – | 6 ± 3.7%
COc1nc(NC(=O)NS(=O)(=O)c2ccccc2C(F)(F)F)nc(C(F)(F)F)n1 [Tritosulfuron] | 72.3 ± 6.7% | 67.7 ± 4.7% | 76.1 ± 3.9% | –
CC[C@H](C)[C@H]1O[C@]2(CC[C@@H]1C)C[C@@H]1C[C@@H](C/C=C(\C)[C@@H](O[C@H]3C[C@H](OC)[C@@H](O[C@H]4C[C@H](OC)[C@@H](O)[C@H](C)O4)[C@H](C)O3)[C@@H](C)/C=C/C=C3\CO[C@@H]4[C@H](O)C(C)=C[C@@H](C(=O)O1)[C@]34O)O2 [Ivermectin-B1a] | – | 11.5 ± 2.3% | 30.3 ± 2.3% | –
CNC(=O)c1cc(Cl)cc(C)c1NC(=O)c1cc(Br)nn1-c1ncccc1Cl [Chlorantraniliprole] | 66.7 ± 5.2% | 49.5 ± 2.3% | 75.5 ± 1.2% | –
Nc1ccccc1[N+](=O)[O-] [2-Nitroaniline] | – | 25.1 ± 5.2% | – | –
CCCCCCCC[N+](C)(C)C [Trimethyloctylammonium] | 38.7 ± 3.8% | 35 ± 2.5% | 72.1 ± 3% | 45.7 ± 6.1%
CC(C)CCCCCCOC(=O)C1CCCCC1C(=O)OCCCCCCC(C)C (stereo unspecified) [DINCH] | – | 6.04 ± 3.4% | – | 4.77 ± 1.6%
COc1cc(-c2ccc(N)c(OC)c2)ccc1N [o-Dianisidine] | 0.374 ± 0.16% | 15.5 ± 3% | 46.7 ± 7.3% | –
C#CCN1C(=O)COc2cc(F)c(N3C(=O)C4=C(CCCC4)C3=O)cc21 [Flumioxazin] | 47.2 ± 4.8% | 40.9 ± 0.44% | 5.96 ± 5.2% | 38.5 ± 7.6%
Cc1ccccc1NC(=N)Nc1ccccc1C [1,3-Di-o-tolylguanidine] | 20.9 ± 2.6% | 34.2 ± 2.8% | 64.5 ± 1.7% | –
Cc1ccc(-c2c(Cl)nc(C#N)n2S(=O)(=O)N(C)C)cc1 [Cyazofamid] | – | 41 ± 2% | – | –
O=C(CC(C(=O)OC1CCCCC1)S(=O)(=O)O)OC1CCCCC1 (stereo unspecified) [Dicyclohexyl sulfosuccinate] | 37.7 ± 3.3% | 27.6 ± 3.1% | 71.8 ± 3.4% | 37.1 ± 6.9%
Nc1c(Br)cc(Br)cc1CN[C@H]1CC[C@H](O)CC1 [Ambroxol] | 5.97 ± 0.52% | 37.1 ± 7.2% | – | 29.4 ± 6.9%
N=C1NCCN1Cc1ccc(Cl)nc1 [Imidacloprid-guanidine] | – | 26.9 ± 4.3% | 73 ± 3% | –
CCCSP(=O)(OCC)Oc1ccc(Br)cc1Cl (stereo unspecified) [Profenofos] | – | 39.9 ± 5.7% | – | –
CC[C@@H](C(=O)[C@@H](C)[C@@H](O)[C@H](C)[C@@H]1O[C@@H]([C@@H](CC)C(=O)O)CC[C@@H]1C)[C@H]1O[C@]2(C=C[C@@H](O)[C@]3(CC[C@@](C)([C@H]4CC[C@](O)(CC)[C@H](C)O4)O3)O2)[C@H](C)C[C@@H]1C [Salinomycin] | – | 26.7 ± 6.9% | 51.9 ± 13% | –
CC(C)(c1ccc(O)c(-c2ccccc2)c1)c1ccc(O)c(-c2ccccc2)c1 [Bisphenol-PH] | 64.8 ± 12% | 26.7 ± 7% | 38 ± 5% | –
CCCCOC(=O)CCCCCCCCC(=O)OCCCC [Dibutyl-sebacate] | – | 28.7 ± 6.6% | – | –
COC(=O)c1ccc(CNS(C)(=O)=O)cc1S(=O)(=O)NC(=O)Nc1nc(OC)cc(OC)n1 [Mesosulfuron-methyl] | 40.3 ± 5.8% | 41.4 ± 2.8% | 74.9 ± 5.7% | –
CCCCC(CC)COC(=O)C=Cc1ccc(OC)cc1 (stereo unspecified) [Octyl-methoxycinnamate] | – | 10.2 ± 2.1% | 141 ± 20% | –
CC(=O)OCC(=O)[C@@]1(O)CC[C@H]2[C@@H]3CCC4=CC(=O)CC[C@]4(C)[C@H]3[C@@H](O)C[C@@]21C [Hydrocortisonacetate] | – | – | – | 47.4 ± 6.2%

SMILES | chemical recovery [1] | chemical recovery [2] | chemical recovery [3] | chemical recovery [4]
O=P(O)(O)C(F)(F)C(F)(F)C(F)(F)C(F)(F)C(F)(F)C(F)(F)F [Perfluorohexylphosphonic-acid] | 37.5 ± 6% | 31.2 ± 4.6% | 26.7 ± 9.3% | –
CCCCCCCCCCCCCC[N+](C)(C)C [Tetradecyltrimethylammonium] | – | 94.4 ± 29% | – | –
COCCOCCO [Diethyleneglycolmonomethylether] | – | 1.78 ± 2.6% | – | –
Oc1cc(Cl)ccc1Oc1ccc(Cl)cc1 [Diclosan] | – | 32.1 ± 2.6% | 41.7 ± 3.2% | –
CC(=O)NCCNC(C)=O [Diacetylethylenediamine] | 0.534 ± 0.055% | 0.155 ± 0.14% | – | –
Nc1cccc2cc(S(=O)(=O)O)ccc12 [5-Aminonaphthalene-2-sulfonic acid] | – | 10.5 ± 3.9% | 65 ± 2.7% | 18.3 ± 2.4%
NC(=O)c1c(Cl)cccc1Cl [2,6-Dichlorobenzamide] | – | 63.3 ± 4.5% | – | –
CC(Oc1ccc(Oc2cnc3cc(Cl)ccc3n2)cc1)C(=O)O (stereo unspecified) [Quizalofop] | 43.1 ± 5.6% | 28.1 ± 1.3% | 67.8 ± 5.7% | –
CN/C(=N/CC1CCOC1)N[N+](=O)[O-] (stereo unspecified) [Dinotefuran] | – | 27.4 ± 2.9% | 76.3 ± 3.7% | –
CCOc1ccc(C(C)(C)COCc2cccc(Oc3ccccc3)c2)cc1 [Etofenprox] | – | 4.05 ± 1.4% | 5.02 ± 0.29% | –
O=C(NC(=O)c1c(F)cccc1F)Nc1ccc(Oc2ccc(C(F)(F)F)cc2Cl)cc1F [Flufenoxuron] | – | 25.7 ± 5.2% | – | 24 ± 6.8%
COc1cc(NC(=O)CC(C)=O)c(OC)cc1Cl [4'-Chloro-2',5'-dimethoxyacetoacetanilide] | 21.7 ± 5% | 43.2 ± 5.5% | – | –
N#Cc1c(O)c(Cl)c(Cl)c(C#N)c1Cl [Chlorothalonil-4-hydroxy] | 37.1 ± 5.2% | 32.4 ± 3% | – | 33.8 ± 7.8%
Cc1cccc2cc3ccccc3cc12 [1-Methylanthracene] | – | 4.65 ± 1.1% | – | –
CCCN(CCC)C(=O)SCc1ccccc1 [Prosulfocarb] | – | 33.6 ± 4.5% | 72.6 ± 6.4% | 35.1 ± 6%
CC1CC(OC(=O)c2ccccc2O)CC(C)(C)C1 (stereo unspecified) [Homosalate] | – | 0.169 ± 0.033% | 41 ± 2.4% | –
CN(C)CC(c1ccc(O)cc1)C1(O)CCCCC1 (stereo unspecified) [Venlafaxine-O-desmethyl] | 31.3 ± 3.1% | 31.2 ± 2.6% | – | –
Cc1cc(C(C)(C)c2ccc(O)c(C)c2)ccc1O [Bisphenol-C] | 52.7 ± 2.9% | 34.5 ± 4.8% | 39.4 ± 2.5% | –
N#Cc1cc(Cl)c(O)c(Cl)c1 [Chloroxynil] | 59 ± 2.5% | 46.1 ± 5.2% | 74.3 ± 3.8% | –
C#CCOc1ccc(CCNC(=O)C(OCC#C)c2ccc(Cl)cc2)cc1OC (stereo unspecified) [Mandipropamid] | 70.3 ± 10% | 58.4 ± 2.1% | 82.4 ± 3.2% | –
Nc1ccc(Cc2ccc(N)c(Cl)c2)cc1Cl [2,2'-dichloro-4,4'-methylenedianiline] | 28.7 ± 6.4% | 47 ± 13% | 71.3 ± 5.2% | –
O=C(Nc1ccccc1)N(Cc1ccc(Cl)cc1)C1CCCC1 [Pencycuron] | 54 ± 6.3% | 28.4 ± 3.3% | – | –

SMILES | chemical recovery [1] | chemical recovery [2] | chemical recovery [3] | chemical recovery [4]
O=C(O)C(F)(F)C(F)(F)C(F)(F)C(F)(F)C(F)(F)C(F)(F)C(=O)O [Perfluorosuberic-acid-] | 0.975 ± 0.36% | 5.56 ± 1.8% | 71.9 ± 7.3% | –
CC(C)NCC(O)COc1ccc(CC(=O)O)cc1 (stereo unspecified) [Metoprolol acid] | 41.1 ± 5% | 33.5 ± 2.9% | 54.1 ± 9.1% | –
Oc1cc(-c2ccc(Cl)cc2)ccc1Cl [3-Hydroxy-4,4'-dichlorobiphenyl] | – | 35.7 ± 2.3% | 42.3 ± 3.4% | –
CCNc1nc(NC(C)C)[nH]c(=O)n1 [2-Hydroxyatrazine] | 36.1 ± 4.4% | 29.1 ± 3.5% | 76.5 ± 3.2% | 44.3 ± 8.2%
CCCCCCCCCCCCCCCC(=O)NCCO [Palmitoylethanolamide] | – | 33.5 ± 8.8% | – | –
CCNS(=O)(=O)C(F)(F)C(F)(F)C(F)(F)C(F)(F)C(F)(F)C(F)(F)C(F)(F)C(F)(F)F [N-Ethylperfluorooctane-sulfonamide] | – | 2.91 ± 0.86% | – | –
CN/C(=N\CCSCc1nc[nH]c1C)NC#N [Cimetidine] | – | – | 54.8 ± 1.7% | –
NS(=O)(=O)C(F)(F)C(F)(F)C(F)(F)C(F)(F)C(F)(F)C(F)(F)C(F)(F)C(F)(F)F [Perfluorooctanesulfonamide] | – | 32 ± 4.9% | – | 38.8 ± 9.3%
CCCNC(=O)NS(=O)(=O)c1ccc(Cl)cc1 [Chlorpropamide] | 55.3 ± 5% | 47.5 ± 3.5% | 76.8 ± 4.6% | –
c1ccc2sc(SN3CCOCC3)nc2c1 [2-Morpholinothiobenzothiazole] | – | – | 139 ± 8.9% | –
CCC(C)(C)c1cc(-n2nc3ccccc3n2)c(O)c(C(C)(C)CC)c1 [UV-328] | – | 1.74 ± 0.56% | – | –
O=C1Cc2ccccc2N1 [2-Oxindole] | – | – | 39.1 ± 5.5% | –
Cc1cc(Cl)ccc1OCCCC(=O)O [MCPB] | 44.6 ± 2% | 35.9 ± 1.6% | 66.9 ± 4.5% | –
Cc1cc(Cc2cc(C)cc(C(C)(C)C)c2O)c(O)c(C(C)(C)C)c1 [2,2'-Methylenebis(6-tert-butyl-p-cresol)] | – | 7.83 ± 3.9% | – | –
O=c1n(CC(Br)CBr)c(=O)n(CC(Br)CBr)c(=O)n1CC(Br)CBr (stereo unspecified) [Tris(2,3-dibromopropyl)isocyanurate] | – | 3.25 ± 5.6% | – | –
O=c1[nH]sc2ccccc12 [1,2-Benzisothiazolinone] | 7.12 ± 0.96% | 10.7 ± 1.4% | 5.44 ± 4.6% | 1.19 ± 2.4%
CCOP(=S)(OCC)SCSCC [Phorate] | 0.327 ± 0.035% | 10.2 ± 3.3% | 37.8 ± 3.6% | –
Cc1ncc([N+](=O)[O-])n1CCO [Metronidazole] | – | 21.2 ± 3.4% | 70.6 ± 4.1% | –
CC(C)CCCCOC(=O)c1ccccc1C(=O)OCCCCC(C)C [Diisoheptyl-phthalate] | – | 12.9 ± 3.1% | 103 ± 14% | –
CNC(=O)O/N=C(\C)SC [Methomyl] | 50.6 ± 5% | 47.3 ± 1.8% | 75.8 ± 3.8% | –
O=C(CC(C(=O)OC1CCCCC1)S(=O)(=O)O)OC1CCCCC1 (stereo unspecified) [Dicyclohexyl-sulfosuccinate] | 57.7 ± 5.7% | 44.3 ± 2.2% | – | –
